Read-outs that look alike come from different tables or passages of the source.
Experiments:
synovial fibroblasts = test: toxicity in synovial fibroblasts; type: cell-based; conditions: 100 μM
hMSC = test: type II collagen and aggrecan immunohistochemistry in hMSC pellet culture; type: cell-based, human; conditions: 21 days
Description: In the screen, hMSCs were used as a surrogate to future targeting of the resident MSCs with the cartilage joint. It was in that setting upon which we identified PRO1. In a joint injury, the primary cell type a therapeutic would have contact with is the chondrocyte. Although cartilage or chondrocyte-targeted screening has not lead to the development of a successful drug modifying osteoarthritis drug (DMOAD) to date, it is believed that a stem cell-based therapeutic would protect and even repair the existing chondrocytes. Therefore, protection of the articular chondrocytes and cartilage from a mature bovine knee was assessed. PRO1 and its analogues were incubated with primary bovine chondrocytes or cartilage explants cultures grown in the presence of TNFα and oncostatin M to mimic the cytokine-induced damage that can occur during OA. In the presence of the cytokine cocktail, in vitro cultured primary chondrocytes released 4-5 fold more nitric oxide (NO) than the untreated chondrocytes (50 μM vs 10 μM) as measured by the Greiss reaction. […]
Primary hMSCs were plated (10,000/well) in 384-well plates and cultured for 18 days. […] 20 μl of the supernatant was mixed with 20 μl of the Greiss reagent and quantitated at 540 nm as described by the Promega kit instructions. […]

human chondrocytes = test: proliferation of human chondrocytes; type: cell-based
[1] = test system: primary bovine chondrocytes; test: inhibition of cytokine-induced nitric oxide release (Greiss reaction); type: cell-based
Description: In the screen, hMSCs were used as a surrogate to future targeting of the resident MSCs with the cartilage joint. It was in that setting upon which we identified PRO1. In a joint injury, the primary cell type a therapeutic would have contact with is the chondrocyte. Although cartilage or chondrocyte-targeted screening has not lead to the development of a successful drug modifying osteoarthritis drug (DMOAD) to date, it is believed that a stem cell-based therapeutic would protect and even repair the existing chondrocytes. Therefore, protection of the articular chondrocytes and cartilage from a mature bovine knee was assessed. PRO1 and its analogues were incubated with primary bovine chondrocytes or cartilage explants cultures grown in the presence of TNFα and oncostatin M to mimic the cytokine-induced damage that can occur during OA. In the presence of the cytokine cocktail, in vitro cultured primary chondrocytes released 4-5 fold more nitric oxide (NO) than the untreated chondrocytes (50 μM vs 10 μM) as measured by the Greiss reaction. In cells treated with the cytokine cocktail and PRO1, the small molecule could effectively block the release of NO by up to 70% FIG. 2C). Similarly, in ex vivo treated cartilage explants, cytokine-induced release of glycosaminoglycans (GAG) was reduced by up to 60% by PRO1 (FIG. 2D). Finally, hMSC were grown in pellet culture for 21 days.
(§1) Primary hMSCs were plated (10,000/well) in 384-well plates and cultured for 18 days. The cells were fixed with 4% formalin, permeabilized with triton (0.5%), digested with 0.5 mg/ml collagenase II to unwind the collagen fibrils, and then immunostained with an antibody recognizing type II collagen. DAPI (2 μg/ml) was added to visualize the nuclei. The chondrogenic nodules stained positive for type II collagen but lacked expression of type X collagen and osteocalcin, markers for chondrocyte hypertrophy and osteoblasts, respectively (not shown). 10,000 hMSCs (passages 3-5) were plated in Greiner 384-well low-bottom plates on day 1. The cells were allowed to adhere and stimulated for 48 hrs (days 2-3) with the indicated stimuli in MSC growth media (Millipore). The media was then removed and replaced with serum-free DMEM for an additional 16 days. This media was replenished on days 10 and 15 of the assay. Primary bovine chondrocytes were isolated from the articular surfaces from mature knees. After one week of culture, 8,500 cells were trypsinized and plated in Greiner 384-well white clear-bottom plates in growth media. […] 20 μl of the supernatant was mixed with 20 μl of the Greiss reagent and quantitated at 540 nm as described by the Promega kit instructions. Bovine cartilage explants (cut in circular explants in a 96 well plate) were cultured in the presence of 20 ng/ml TNFα and 10 ng/ml oncostatin M to induce GAG release for 72 hours (FIG. 2D). PRO1 was added at the indicated concentrations during the entire 72 hrs. […] Parafin sections were hydrated, incubated in low pH Antigen unmasking solution (Vector) at 90 C for 10 minutes, permeabilized with 0.1% collagenase II (only for the sections stained with type II collagen) for 10 minutes, blocked with CAS block for 10 minutes and then incubated with the primary antibody (type II collagen, aggrecan or Timp1) antibody (Abcam) overnight at 4 C. The antigens were visualized through standard ABC detection methods and developed with DAB. Representative of 3 sections stained/treatment group (independent experiments).

FLNA/PEBP2β = target: T1, FLNA/PEBP2β (Homo sapiens, UniProt P21333); test: immunoprecipitation and Western blotting of FLNA/PEBP2β interaction in hMSCs; type: cell-based; conditions: 12 hr treatment
T1 construct: endogenous in cells; host or cells: hMSCs (primary human mesenchymal stem cells)
T1 sequence (P21333 2-2647 limits assumed): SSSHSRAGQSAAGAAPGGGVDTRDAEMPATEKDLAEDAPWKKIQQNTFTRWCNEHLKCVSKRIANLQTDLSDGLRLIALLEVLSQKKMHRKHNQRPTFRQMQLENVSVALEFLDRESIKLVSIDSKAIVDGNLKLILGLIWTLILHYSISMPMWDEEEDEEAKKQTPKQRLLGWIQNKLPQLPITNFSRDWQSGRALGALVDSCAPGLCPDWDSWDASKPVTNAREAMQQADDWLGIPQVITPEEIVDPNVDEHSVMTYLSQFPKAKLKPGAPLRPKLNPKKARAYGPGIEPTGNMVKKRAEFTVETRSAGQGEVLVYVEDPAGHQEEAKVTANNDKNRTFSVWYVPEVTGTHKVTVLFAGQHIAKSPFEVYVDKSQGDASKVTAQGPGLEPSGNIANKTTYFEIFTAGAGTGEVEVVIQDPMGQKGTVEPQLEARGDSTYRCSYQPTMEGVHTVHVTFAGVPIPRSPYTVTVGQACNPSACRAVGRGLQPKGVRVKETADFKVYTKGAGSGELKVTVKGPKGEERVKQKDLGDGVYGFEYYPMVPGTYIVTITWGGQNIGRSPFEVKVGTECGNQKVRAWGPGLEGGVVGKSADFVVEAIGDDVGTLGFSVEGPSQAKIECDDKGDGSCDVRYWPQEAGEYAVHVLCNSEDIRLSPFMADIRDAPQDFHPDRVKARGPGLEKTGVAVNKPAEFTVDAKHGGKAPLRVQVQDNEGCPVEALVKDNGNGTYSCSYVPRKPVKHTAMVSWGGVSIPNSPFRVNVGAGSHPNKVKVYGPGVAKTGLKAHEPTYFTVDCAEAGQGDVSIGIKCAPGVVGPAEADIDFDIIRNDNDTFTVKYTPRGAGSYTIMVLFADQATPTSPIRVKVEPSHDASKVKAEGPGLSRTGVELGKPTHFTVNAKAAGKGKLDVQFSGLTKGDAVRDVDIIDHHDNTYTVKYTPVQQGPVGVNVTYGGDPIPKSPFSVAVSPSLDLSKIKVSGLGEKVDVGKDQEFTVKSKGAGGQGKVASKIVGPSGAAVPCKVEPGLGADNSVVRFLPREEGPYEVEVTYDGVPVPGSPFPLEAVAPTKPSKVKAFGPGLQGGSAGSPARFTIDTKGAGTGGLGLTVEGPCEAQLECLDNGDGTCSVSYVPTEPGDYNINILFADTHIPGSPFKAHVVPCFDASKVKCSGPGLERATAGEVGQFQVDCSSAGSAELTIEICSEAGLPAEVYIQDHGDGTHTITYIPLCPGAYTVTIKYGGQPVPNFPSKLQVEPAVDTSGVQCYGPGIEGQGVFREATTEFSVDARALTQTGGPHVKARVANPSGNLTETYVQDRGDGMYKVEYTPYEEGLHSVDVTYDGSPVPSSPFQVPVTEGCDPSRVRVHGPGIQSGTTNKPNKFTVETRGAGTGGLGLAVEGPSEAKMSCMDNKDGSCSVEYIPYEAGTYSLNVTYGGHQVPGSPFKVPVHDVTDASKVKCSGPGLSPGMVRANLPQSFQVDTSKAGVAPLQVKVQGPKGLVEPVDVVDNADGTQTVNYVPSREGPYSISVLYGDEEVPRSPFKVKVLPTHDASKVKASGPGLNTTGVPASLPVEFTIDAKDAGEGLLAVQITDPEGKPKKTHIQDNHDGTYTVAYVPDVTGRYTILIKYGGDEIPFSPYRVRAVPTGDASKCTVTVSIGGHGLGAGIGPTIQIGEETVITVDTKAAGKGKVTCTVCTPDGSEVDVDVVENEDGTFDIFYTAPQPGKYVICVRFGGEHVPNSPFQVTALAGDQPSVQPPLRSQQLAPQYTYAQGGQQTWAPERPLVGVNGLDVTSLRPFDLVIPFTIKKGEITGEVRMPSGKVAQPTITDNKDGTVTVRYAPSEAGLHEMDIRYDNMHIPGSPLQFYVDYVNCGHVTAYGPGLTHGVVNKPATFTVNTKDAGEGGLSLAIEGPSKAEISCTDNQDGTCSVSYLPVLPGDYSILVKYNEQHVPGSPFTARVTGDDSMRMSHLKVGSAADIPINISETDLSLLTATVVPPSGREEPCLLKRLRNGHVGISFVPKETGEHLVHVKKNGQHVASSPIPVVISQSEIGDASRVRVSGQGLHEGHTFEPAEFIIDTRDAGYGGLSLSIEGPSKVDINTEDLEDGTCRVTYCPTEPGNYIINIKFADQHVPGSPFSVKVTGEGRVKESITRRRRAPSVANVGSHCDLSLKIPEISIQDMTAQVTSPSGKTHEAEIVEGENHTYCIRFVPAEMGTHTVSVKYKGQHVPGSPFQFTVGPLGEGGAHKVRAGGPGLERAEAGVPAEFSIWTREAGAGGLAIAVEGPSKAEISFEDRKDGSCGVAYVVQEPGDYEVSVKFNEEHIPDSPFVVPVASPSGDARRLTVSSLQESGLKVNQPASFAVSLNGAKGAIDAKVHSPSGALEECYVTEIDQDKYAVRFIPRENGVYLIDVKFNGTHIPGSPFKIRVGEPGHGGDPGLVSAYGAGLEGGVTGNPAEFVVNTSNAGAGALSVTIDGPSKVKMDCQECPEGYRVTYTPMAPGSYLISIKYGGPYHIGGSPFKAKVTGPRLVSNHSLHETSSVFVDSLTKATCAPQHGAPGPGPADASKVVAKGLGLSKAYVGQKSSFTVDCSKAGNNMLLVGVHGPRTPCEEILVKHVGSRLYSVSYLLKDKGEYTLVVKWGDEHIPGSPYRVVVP
Protocol: hMSCs were treated with […] for 12 hr and lysed as above. 2 μg of anti-PEBP23 antibody was added to the cell lysate and incubated overnight at 4° C. prior to addition of agarose beads bearing immobilized protein A/G. After incubation of the lysate with the protein A/G beads for 1 hour, the beads were collected by centrifugation at 2,000 rpm and washed 3 times with lysis buffer. 30 μL of 2×SDS sample buffer was added to the beads and boiled for 5 min.

hMSCs = test: type II collagen expression in hMSC cultures (18 day assay); type: cell-based, human
Protocol: The chondrogenic differentiation event was initiated quickly even though a fully differentiated chondrocyte phenotype cannot be assessed prior to 14 days in culture. In an 18 day assay, compound treatment was only required for the first 48 hrs and followed by removal and replacement of the media (in the absence of stimuli, FIG. 2B). The promotion of chondrogenic differentiation was not altered or enhanced upon longer treatment with the stimuli (data not shown).
as §1

[2] = in vivo, 0.05 mg/kg
female 129SVE mice = test: surgically induced cartilage injury (ACL, MCL, MMTL transection); type: in vivo; conditions: IA injection days 7, 14 and 21
Protocol: Surgical transection of the ACL, MCL, and MMTL was performed to induce cartilage injury in female 129SVE mice. Mice were dosed by IA injection on days 7, 14 and 21. The medial tibial plateaus from representative mice were assessed on day 28 (FIG. 4A). Histomorphometric analyses and grading by two blinded observers using a modified OARSI scoring system determined the joint severity scores of the […] tibial plateau on day 28 after surgical induction (FIG. 4B). At 28 days, peripheral blood was collected by retro-orbital bleeding and the serum was used to determine the cleaved type II collagen fragments (CTX-II levels) by ELISA (Serum Pre-Clinical Cartilaps, Immunodiagnostic Systems, Fountain Hills, Ariz.). n=15/treatment group (FIG. 4C).

[3] = test system: human mesenchymal stem cells (hMSCs); test: chondrogenic nodule formation by hMSCs (high throughput screen); type: cell-based
How it was run: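 Primary hMSCs (10^4/well) in serum-free DMEM exposed to compounds at 5 μM for 4 days. Chondrogenic nodules stained with Nile red (binds collagens) and counted by high-content imaging with 488 laser excitation. In 96-well follow-up, 50,000 cells/well treated 4 days, formalin-fixed, stained with 1 μg/ml Rhodamine B.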

protein interactions between FLNA and PEBP2β (FLNA/PEBP2β): Inhibits the Protein Interactions
EC50 (hMSCs): 0.08 µM
Plasma Conc. [2]: BLQ
EC50 ([3]; Homo sapiens, Mesenchymal stem cells, 96 h, primary screen, Nile red stained nodules, 4 days, read-out: EC50): 0.1 µM
EC50 ([3]; first value of the cell (before the slash), read-out: CHONDROGENIC μM EC50): 0.225 µM
Compound: O=C(O)c1ccccc1C(=O)Nc1ccc(-c2ccccc2)cc1 [AKT]
toxicity (synovial fibroblasts): No toxicity
type II collagen and aggrecan expression (hMSC): increase type II collagen and aggrecan expression
proliferative advantage (human chondrocytes): < 1.5 fold
block of cytokine-induced release of NO ([1]; TNFα and oncostatin M cocktail, up to): up to 70%
IC50 ([1]; second value of the cell (after the slash), TNFα and oncostatin M, 48 hours, read-out: NO INHIBTION μM IC50): 0.45 µM
induction of chondrogenic differentiation of hMSCs (hMSCs; compared with known inducers TGFβ3, BMP7 or BMP2, FIG. 2B): more potent and efficient
cartilage damage (female 129SVE mice; day 28): Protection
CTX-II peptide in plasma (female 129SVE mice; day 28, ELISA): Inhibition
cartilage nodule formation ([3]; 100 nM, 4 days, Rhodamine B stain): Rapid Phenotypic Cartilage Nodule Formation

— patent US10166237B2, “Compounds and methods for inducing chondrogenesis” (The Scripps Research Institute, priority 2011, dated 2019)
